Source: ChEMBL document CHEMBL3351293, “Design, synthesis and in vitro evaluation of novel uni- and bivalent ligands for the cannabinoid receptor type 1 with variation of spacer length and structure” (Bioorg Med Chem Lett, 2014)

Experiments:
Cannabinoid receptor 1 [1] = target: T1, Cannabinoid receptor 1 (Homo sapiens, UniProt P21554); settings: Sf9, at 30 µM
Description: Inverse agonist activity at human CB1 receptor expressed in Sf9 cells coexpressing Gbeta1gamma2 and RSG4 assessed as degradation of [gamma-33P]GTP at 30 uM after 20 mins by steady-state GTPase assay relative to control

Cannabinoid receptor 1 [2] = target: T1, Cannabinoid receptor 1; experiment: Inverse agonist activity at human CB1 receptor expressed in Sf9 cells coexpressing Gbeta1gamma2 and RSG4 assessed as degradation of [gamma-33P]GTP after 20 mins by steady-state GTPase assay; assay type: cell-based
Cannabinoid receptor 2 = Cannabinoid receptor 2 (Homo sapiens, UniProt P34972); experiment: Displacement of [3H] CP-55,940 from human CB2 receptor expressed in HEK cells at 10 uM after 3 hrs by scintillation counting; assay type: cell-based; settings: for inhibition: HEK293
Cannabinoid receptor 1 [3] = target: T1, Cannabinoid receptor 1; settings: Sf9, 30 uM
Description: Agonist activity at human CB1 receptor expressed in Sf9 cells coexpressing Gbeta1gamma2 and RSG4 assessed as degradation of [gamma-33P]GTP at 30 uM after 20 mins by steady-state GTPase assay relative to control

Sequence of Cannabinoid receptor 2 (P34972 whole entry): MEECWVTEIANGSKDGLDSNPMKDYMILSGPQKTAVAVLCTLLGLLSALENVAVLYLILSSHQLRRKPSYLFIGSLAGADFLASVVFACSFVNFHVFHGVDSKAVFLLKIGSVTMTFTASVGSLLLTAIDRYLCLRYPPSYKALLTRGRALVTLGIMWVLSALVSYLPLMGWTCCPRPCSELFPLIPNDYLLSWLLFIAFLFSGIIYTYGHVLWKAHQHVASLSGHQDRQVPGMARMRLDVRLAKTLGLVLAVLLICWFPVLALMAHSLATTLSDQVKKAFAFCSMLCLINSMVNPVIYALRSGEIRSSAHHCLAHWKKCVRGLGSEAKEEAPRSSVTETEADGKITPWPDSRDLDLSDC
T1 sequence (P21554 whole entry): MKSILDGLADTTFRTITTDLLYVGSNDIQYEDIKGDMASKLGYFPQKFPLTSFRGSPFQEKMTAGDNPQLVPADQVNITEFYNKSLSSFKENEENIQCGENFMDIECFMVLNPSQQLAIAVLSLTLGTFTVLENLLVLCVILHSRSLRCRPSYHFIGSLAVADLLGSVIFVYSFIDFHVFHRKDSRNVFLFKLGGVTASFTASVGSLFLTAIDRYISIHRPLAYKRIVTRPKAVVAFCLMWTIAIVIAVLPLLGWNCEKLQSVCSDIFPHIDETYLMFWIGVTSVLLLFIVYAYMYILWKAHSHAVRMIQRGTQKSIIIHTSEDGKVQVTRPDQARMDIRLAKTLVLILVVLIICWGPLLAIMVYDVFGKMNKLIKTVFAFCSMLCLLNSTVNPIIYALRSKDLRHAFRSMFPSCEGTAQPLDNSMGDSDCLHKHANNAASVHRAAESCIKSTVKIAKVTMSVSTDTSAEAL

| SMILES | Emax (Cannabinoid receptor 1 [1]) [%] | EC50 (Cannabinoid receptor 1 [2]) [µM] | inhibition (Cannabinoid receptor 2) [%] | Ki (Cannabinoid receptor 2) [µM] | Emax (Cannabinoid receptor 1 [3]) [%] |
| --- | --- | --- | --- | --- | --- |
| Cc1c(C(=O)NN2CCCCC2)nn(-c2ccc(Cl)cc2Cl)c1-c1ccc(I)cc1 | 100 |  |  |  |  |
| Cc1c(C(=O)NCCCCNCc2ccc(C(=O)NCCCCNC(=O)c3nn(-c4ccc(Cl)cc4Cl)c(-c4ccc(Cl)cc4)c3C)cc2)nn(-c2ccc(Cl)cc2Cl)c1-c1ccc(Cl)cc1 | 67.4 | 1.91 | 23 |  |  |
| Cc1c(C(=O)NCCCCCCCCNCc2ccccc2)nn(-c2ccc(Cl)cc2Cl)c1-c1ccc(Cl)cc1 | 93.8 | 0.123 | 93.9 | 31 |  |
| Cc1c(C(=O)NCCCCNC(=O)c2ccc(C(=O)NCCCCNC(=O)c3nn(-c4ccc(Cl)cc4Cl)c(-c4ccc(Cl)cc4)c3C)cc2)nn(-c2ccc(Cl)cc2Cl)c1-c1ccc(Cl)cc1 | 50.2 | 15 | 24.3 |  |  |
| Cc1c(C(=O)NCCCCNC(=O)[C@@H]2CCC[C@H](C(=O)NCCCCNC(=O)c3nn(-c4ccc(Cl)cc4Cl)c(-c4ccc(Cl)cc4)c3C)C2)nn(-c2ccc(Cl)cc2Cl)c1-c1ccc(Cl)cc1 | 38.2 | 24.3 | 19.8 |  |  |
| Cc1c(C(=O)NCCCCCCCN(CCCCCCCNC(=O)c2nn(-c3ccc(Cl)cc3Cl)c(-c3ccc(Cl)cc3)c2C)Cc2ccccc2)nn(-c2ccc(Cl)cc2Cl)c1-c1ccc(Cl)cc1 | 67.5 | 3.85 | 22.6 |  |  |
| Cc1c(C(=O)NCCCCNC(=O)C2CCCCC2)nn(-c2ccc(Cl)cc2Cl)c1-c1ccc(Cl)cc1 | 91.5 | 0.11 | 24.1 |  |  |
| CCCCCCC(C)(C)c1ccc([C@@H]2C[C@H](O)CC[C@H]2CCCO)c(O)c1 |  |  |  |  | 67.4 |
| Cc1c(C(=O)NCCCCNCc2ccccc2)nn(-c2ccc(Cl)cc2Cl)c1-c1ccc(Cl)cc1 | 92.5 | 0.661 | 85.4 | 12.7 |  |
| Cc1c(C(=O)NCCCCNC(=O)c2ccccc2)nn(-c2ccc(Cl)cc2Cl)c1-c1ccc(Cl)cc1 | 94 | 0.776 | 25.8 |  |  |
| Cc1c(C(=O)NCCCCCCCCNC(=O)c2ccc(C(=O)NCCCCCCCCNC(=O)c3nn(-c4ccc(Cl)cc4Cl)c(-c4ccc(Cl)cc4)c3C)cc2)nn(-c2ccc(Cl)cc2Cl)c1-c1ccc(Cl)cc1 | 29.3 | 40.7 | 9.7 |  |  |
| Cc1c(C(=O)NCCCCNC(=O)[C@@H]2CCC[C@@H](C(=O)NCCCCNC(=O)c3nn(-c4ccc(Cl)cc4Cl)c(-c4ccc(Cl)cc4)c3C)C2)nn(-c2ccc(Cl)cc2Cl)c1-c1ccc(Cl)cc1 (relative stereo) | 63 | 8.55 | 41.1 |  |  |
| Cc1c(C(=O)NCCCCNC(=O)[C@H]2CCCC[C@@H]2C(=O)NCCCCNC(=O)c2nn(-c3ccc(Cl)cc3Cl)c(-c3ccc(Cl)cc3)c2C)nn(-c2ccc(Cl)cc2Cl)c1-c1ccc(Cl)cc1 (relative stereo) | 58.4 | 10.5 | 14.6 |  |  |
| Cc1c(C(=O)NCCCCNC(=O)C23CC4CC(C2)CC(C(=O)NCCCCNC(=O)c2nn(-c5ccc(Cl)cc5Cl)c(-c5ccc(Cl)cc5)c2C)(C4)C3)nn(-c2ccc(Cl)cc2Cl)c1-c1ccc(Cl)cc1 | 66.4 | 16.2 | 15.8 |  |  |
| Cc1c(C(=O)NCCCCNC(=O)c2cccc(C(=O)NCCCCNC(=O)c3nn(-c4ccc(Cl)cc4Cl)c(-c4ccc(Cl)cc4)c3C)c2)nn(-c2ccc(Cl)cc2Cl)c1-c1ccc(Cl)cc1 | 19.5 |  | 0 |  |  |
| Cc1c(C(=O)NCCCCNC(=O)[C@H]2CC[C@H](C(=O)NCCCCNC(=O)c3nn(-c4ccc(Cl)cc4Cl)c(-c4ccc(Cl)cc4)c3C)CC2)nn(-c2ccc(Cl)cc2Cl)c1-c1ccc(Cl)cc1 |  |  | 17.6 |  |  |
| Cc1c(C(=O)NCCCCCCCCNC(=O)[C@H]2CCCC[C@@H]2C(=O)NCCCCCCCCNC(=O)c2nn(-c3ccc(Cl)cc3Cl)c(-c3ccc(Cl)cc3)c2C)nn(-c2ccc(Cl)cc2Cl)c1-c1ccc(Cl)cc1 (relative stereo) | 14.3 |  | 10.5 |  |  |

| SMILES | Emax (Cannabinoid receptor 1 [1]) [%] | EC50 (Cannabinoid receptor 1 [2]) [µM] | inhibition (Cannabinoid receptor 2) [%] | Ki (Cannabinoid receptor 2) [µM] | Emax (Cannabinoid receptor 1 [3]) [%] |
| --- | --- | --- | --- | --- | --- |
| Cc1c(C(=O)NCCCCCCCCNC(=O)C2CCCCC2)nn(-c2ccc(Cl)cc2Cl)c1-c1ccc(Cl)cc1 | 78.8 | 1.1 | 20.2 |  |  |
| Cc1c(C(=O)NCCCCCCNC(=O)c2cccc(C(=O)NCCNC(=O)c3nn(-c4ccc(Cl)cc4Cl)c(-c4ccc(Cl)cc4)c3C)c2)nn(-c2ccc(Cl)cc2Cl)c1-c1ccc(Cl)cc1 | 43.6 |  | 3.2 |  |  |
| Cc1c(C(=O)NCCCCNCc2ccc(CNCCCCNC(=O)c3nn(-c4ccc(Cl)cc4Cl)c(-c4ccc(Cl)cc4)c3C)cc2)nn(-c2ccc(Cl)cc2Cl)c1-c1ccc(Cl)cc1 | 93.2 | 2.95 | 102 | 2.4 |  |
| Cc1c(C(=O)NCCCCCCCCNC(=O)c2cccc(C(=O)NCCCCCCCCNC(=O)c3nn(-c4ccc(Cl)cc4Cl)c(-c4ccc(Cl)cc4)c3C)c2)nn(-c2ccc(Cl)cc2Cl)c1-c1ccc(Cl)cc1 | 59.1 | 13.5 | 29.1 |  |  |
| Cc1c(C(=O)NCCCCCCCNCCCCCCCNC(=O)c2nn(-c3ccc(Cl)cc3Cl)c(-c3ccc(Cl)cc3)c2C)nn(-c2ccc(Cl)cc2Cl)c1-c1ccc(Cl)cc1 | 89.2 | 0.871 | 34.4 |  |  |
| Cc1c(C(=O)NCCCCN)nn(-c2ccc(Cl)cc2Cl)c1-c1ccc(Cl)cc1 | 86.9 | 2.82 | 31.8 |  |  |
| Cc1c(C(=O)NCCCCCCCCNC(=O)[C@@H]2CCC[C@@H](C(=O)NCCCCCCCCNC(=O)c3nn(-c4ccc(Cl)cc4Cl)c(-c4ccc(Cl)cc4)c3C)C2)nn(-c2ccc(Cl)cc2Cl)c1-c1ccc(Cl)cc1 | 45.5 | 7.6 | 18.8 |  |  |
| Cc1c(C(=O)NN2CCCCC2)nn(-c2ccc(Cl)cc2Cl)c1-c1ccc(Cl)cc1 |  |  | 9 |  |  |
| Cc1c(C(=O)NCCCCCCCCNC(=O)[C@@H]2CCC[C@H](C(=O)NCCCCCCCCNC(=O)c3nn(-c4ccc(Cl)cc4Cl)c(-c4ccc(Cl)cc4)c3C)C2)nn(-c2ccc(Cl)cc2Cl)c1-c1ccc(Cl)cc1 | 33.6 | 3.16 | 10.3 |  |  |
| Cc1c(C(=O)NCCCCCCCCNC(=O)[C@H]2CC[C@@H](C(=O)NCCCCCCCCNC(=O)c3nn(-c4ccc(Cl)cc4Cl)c(-c4ccc(Cl)cc4)c3C)CC2)nn(-c2ccc(Cl)cc2Cl)c1-c1ccc(Cl)cc1 | 62.4 | 8.71 | 27.3 |  |  |
| Cc1c(C(=O)NCCCCCCCCNC(=O)c2ccccc2)nn(-c2ccc(Cl)cc2Cl)c1-c1ccc(Cl)cc1 | 80.2 | 0.501 | 21.4 |  |  |
| Cc1c(C(=O)NCCCCNC(=O)[C@H]2CC[C@@H](C(=O)NCCCCNC(=O)c3nn(-c4ccc(Cl)cc4Cl)c(-c4ccc(Cl)cc4)c3C)CC2)nn(-c2ccc(Cl)cc2Cl)c1-c1ccc(Cl)cc1 | 61.9 | 9.66 | 25.9 |  |  |
| Cc1c(C(=O)NCCCCCCCCN)nn(-c2ccc(Cl)cc2Cl)c1-c1ccc(Cl)cc1 | 92.8 | 0.112 | 9.5 |  |  |
| Cc1c(C(=O)NCCCCCCCCNC(=O)[C@H]2CC[C@H](C(=O)NCCCCCCCCNC(=O)c3nn(-c4ccc(Cl)cc4Cl)c(-c4ccc(Cl)cc4)c3C)CC2)nn(-c2ccc(Cl)cc2Cl)c1-c1ccc(Cl)cc1 | 38.8 | 9.55 | 14.5 |  |  |
| Cc1c(C(=O)NCCCCCCCCNC(=O)C23CC4CC(C2)CC(C(=O)NCCCCCCCCNC(=O)c2nn(-c5ccc(Cl)cc5Cl)c(-c5ccc(Cl)cc5)c2C)(C4)C3)nn(-c2ccc(Cl)cc2Cl)c1-c1ccc(Cl)cc1 | 34.7 | 7.24 | 4.1 |  |  |
| Cc1c(C(=O)NCCCCNCc2cccc(C(=O)NCCCCNC(=O)c3nn(-c4ccc(Cl)cc4Cl)c(-c4ccc(Cl)cc4)c3C)c2)nn(-c2ccc(Cl)cc2Cl)c1-c1ccc(Cl)cc1 | 78.1 | 1.62 | 15.3 |  |  |
| Cc1c(C(=O)NCCCCNCc2cccc(CNCCCCNC(=O)c3nn(-c4ccc(Cl)cc4Cl)c(-c4ccc(Cl)cc4)c3C)c2)nn(-c2ccc(Cl)cc2Cl)c1-c1ccc(Cl)cc1 | 76.8 | 8.85 | 7 |  |  |
